# Test system: HRV2-2A
# Format: biochemical
# Details: for Spaltung des Peptidsubstrats in trans durch HRV2-2A: 30 min 37°C
Substance,Spaltung des Peptidsubstrats in trans durch HRV2-2A,Spaltung des Peptidsubstrats [%],"Spaltung des Peptidsubstrats durch HRV2-2A in Anwesenheit von 2,5 M NaCl"
"Ac-TRPIITTAGPSDMYVH-NH2 [Peptid H, Ac-TRPIITTAGPSDMYVH-NH₂]",spezifisch zwischen Alanin und Glycin,–,–
"TRPIITTYGPSDMYVH [Peptid K, Peptidsubstrat mit Spaltsignal Tyr/Gly statt Ala/Gly]",mit der gleichen Effizienz wie die nativen Peptidsubstrate vergleichbarer Länge von HRV2-2A gespalten,100,vollständige Spaltung

# From EP0410147B1
